Test results reported in PubChem BioAssay AID1159561 (GlaxoSmithKline (GSK), 2015).
The source made the active and inactive calls.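 Rule for the calls: active = toxic to mouse fibroblast host cells, with IC50 below 50 µM; inactive = the rest.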

Each compound was assayed on NIH-3T3 viability, ATP luminescence (assay: murine fibroblast viability via ATP level – cell-based, murine fibroblasts, cytotoxicity control for Trypanosoma cruzi inhibitor project (AID 1159561)). Conditions: 4 days.
In the case of O=C(Nc1ccc(Br)cn1)c1ccc(Cn2cnc([N+](=O)[O-])n2)cc1, the IC50 is reported as > 50 µM (inactive). CN(Cc1nc2ccccc2s1)C(=O)C=Cc1cc2ccccc2o1 gave an IC50 of 32 µM. Cc1cccc(NS(=O)(=O)c2cnc3sc(C)cn3c2=O)c1 was tested, and the IC50 was > 50 µM (inactive). With CCC(=O)Nc1ccc(C(=O)Nc2ccccc2-c2ccccc2)cc1 the IC50 was > 50 µM (inactive). Work on CNc1c(C(N)=O)c(-c2ccc3scnc3c2)nn1CC(F)(F)F yielded an IC50 of 20 µM. In the case of N#Cc1cc(N2CCCC2=O)ccc1Sc1ccccc1CO, the IC50 is reported as > 50 µM (inactive). With O=C(CCCn1cnc([N+](=O)[O-])n1)Nc1cccc(Cl)c1 the IC50 was > 50 µM (inactive). Cc1c(C(=O)NCCCCn2ccnc2)oc2c(C)cccc12 was tested, and the IC50 was 32 µM. CCC(c1ccc(F)cc1)n1cncc1-c1cnn(C)c1 (configuration not stated) showed an IC50 of 25 µM. O=C(NCc1ccc(-n2cccc2)cc1)c1nc(Cn2ccc([N+](=O)[O-])n2)no1 gave an IC50 of 50 µM. In the case of c1ccc2c(CCOc3nccnc3-c3ccncc3)c[nH]c2c1, the IC50 is reported as 20 µM. With CCN(CC)S(=O)(=O)c1ccc(Cn2nc(C(=O)Nc3ccncn3)c3ccccc32)cc1 the IC50 was 40 µM. Compound O=C(N1CCc2ccccc2CC1)C1(C(=O)N2CCC(n3c(=O)[nH]c4ncccc43)CC2)CC1 has an IC50 of 40 µM. For O=C(Nc1ccc(C(=O)N2CCCC2c2ccc3c(c2)OCCCO3)cc1)c1ccco1 (configuration not stated), the IC50 was > 50 µM (inactive). Cc1cc(C)c(C#N)c(SCC(=O)c2ccc3c(c2)OCO3)n1 was tested, and the IC50 was > 50 µM (inactive). For Cc1cc(N(C)C)nc(Nc2ccccc2C)n1, the IC50 was 40 µM. Compound CN(C)Cc1ccc(N2CCC(NS(=O)(=O)c3ccc(Cl)cc3)CC2)cc1 has an IC50 of 16 µM. In the case of O=S(=O)(c1ccccc1C(F)(F)F)N1CCN(Cc2ccc(-n3ccnc3)cc2)CC1, the IC50 is reported as > 50 µM (inactive). Work on Cc1cccc(N2CCCN(Cc3c[nH]c4ccccc34)CC2)n1 yielded an IC50 of 25 µM. Cc1nnnn1-c1cccc(C(=O)N2CCC[C@@]3(C)c4ncncc4CCC23)c1 (some centres not stated) was tested, and the IC50 was > 50 µM (inactive). O=S(=O)(c1cccc(CSc2nnc(-c3ccc4c(c3)OCO4)o2)c1)N1CCOCC1 showed an IC50 of 16 µM. Compound COc1ccc(C(=O)Nc2cc(C(F)(F)F)ccc2N2CCOCC2)c(OC)c1 has an IC50 of 32 µM. CS(=O)(=O)c1cccc(CNC(=O)c2cncc(N3CCN(c4ccc(F)cc4)CC3)c2)c1 showed an IC50 of 25 µM. In the case of CC(Cn1ccnc1)NC(=O)C1CC1c1cccc(Cl)c1Cl (configuration not stated), the IC50 is reported as > 50 µM (inactive). COc1ccc(S(=O)(=O)NCc2ccc(-c3ccc(CN(C)CCO)cc3)cc2)cc1 gave an IC50 of 16 µM. With O=C(NCC1CCCCC1)c1cnns1 the IC50 was > 50 µM (inactive). Work on Cc1ccccc1OCC(=O)N1CCCN(c2cccnn2)CC1 yielded an IC50 of 50 µM. CCOc1ccc(NC(=O)C=Cc2ccc(CC)o2)cc1 was tested, and the IC50 was 32 µM. In the case of CC(C)(C)C(O)(CCc1ccc(Cl)cc1)Cn1cncn1 (configuration not stated), the IC50 is reported as > 50 µM (inactive). In the case of COc1ccc(NS(=O)(=O)c2cc(NC(=O)c3ccc([N+](=O)[O-])s3)ccc2OC)cc1, the IC50 is reported as > 50 µM (inactive). With N#Cc1ccc(S(=O)(=O)N2CCN(Cc3cccc(-c4ccncc4)c3)CC2)cc1 the IC50 was 13 µM. CN(Cc1ccc(F)cc1)c1ccc(OCC(=O)N2CCCCC2c2cccnc2)nn1 (configuration not stated) was tested, and the IC50 was 10 µM. For CN(C)CCOc1ccc(N2CCN(S(=O)(=O)c3ccc(Cl)cc3)CC2)cc1, the IC50 was 16 µM. Compound Fc1ccc(OC2CC(NCc3cccc4cn[nH]c34)C2)cc1C(F)(F)F (configuration not stated) has an IC50 of 13 µM. With O=C(Nc1ncc([N+](=O)[O-])s1)C1CC1 the IC50 was 32 µM. With CNc1cc(C)nc(C2CN(C(=O)c3n[nH]c4ccccc34)CCO2)c1 (configuration not stated) the IC50 was > 50 µM (inactive). CN(C)c1ncc(-c2cncn2CCOc2ccc(Cl)cc2)cn1 was tested, and the IC50 was 40 µM. For O=C(NCCc1cccnc1)c1csc(-c2ccccc2)n1, the IC50 was 50 µM. For C=CCOCC1Cn2nc([N+](=O)[O-])nc2O1 (configuration not stated), the IC50 was > 50 µM (inactive). For COc1ccc2nc(N(Cc3cccnc3)C(=O)C3CCC3)sc2c1, the IC50 was 50 µM. With CC(=Cc1ccccc1)CN1CCC(=O)N(Cc2cccnc2)CC1 the IC50 was > 50 µM (inactive). With COc1ccc(-c2nc3ncccc3o2)cc1NC(=O)c1cccs1 the IC50 was > 50 µM (inactive). For Nc1ncnc2c1ncn2[C@@H]1O[C@H](CO)C[C@H]1O, the IC50 was > 50 µM (inactive). For Cc1nc2nc(C)c(Cc3ccc(C(C)C)cc3)c(=O)n2[nH]1, the IC50 was > 50 µM (inactive). Work on O=C(NCCc1cccnc1)c1ccc(-c2ccccc2F)o1 yielded an IC50 of 40 µM. Compound O=C1CCCCCC1(Cc1cnc[nH]1)c1ccc(Cl)cc1Cl (configuration not stated) has an IC50 of 20 µM. Cc1ccc2sc(NC(=O)Cn3cnc([N+](=O)[O-])n3)nc2c1 was tested, and the IC50 was 50 µM. CC(C(=O)Nc1ccccc1F)N(C)CC(=O)Nc1cccc2ccccc12 (configuration not stated) gave an IC50 of 13 µM. With COc1ccc(NS(=O)(=O)c2cc(-c3cc(C)[nH]n3)ccc2C)cc1OC the IC50 was > 50 µM (inactive). In the case of CCOc1cnn(C)c(=O)c1Nc1ccc(C(=O)NCc2ccc(F)cc2)cc1, the IC50 is reported as > 50 µM (inactive). In the case of c1cc(-c2ncc(-c3ccn[nH]3)s2)ccn1, the IC50 is reported as > 50 µM (inactive). With Cn1nc([N+](=O)[O-])nc1N1CCCCC1 the IC50 was > 50 µM (inactive).
